Test results taken from paper PMC3983396 (Journal of medicinal chemistry, 2014).

Columns and labels:
[1] = Water solubility of salts; type: physicochemical; settings: compared to the salts of monocyclic amines (7m and 7s)
[2] = test system: MCF-7 and MDA-MB-231 cells; assay: Flow cytometry after prolonged treatment; type: cell-based, human; settings: greater than 48 h
[3] = test system: PARP cleavage in MCF-7 and MDA-MB-231 cells; assay: PARP cleavage, Western blot; type: cell-based, human; settings: 24 h, 1 μM
[4] = test system: CDK4; settings: read-out: IC50 CDK4; cited from earlier work
[5] = test system: CDK6; settings: read-out: IC50 CDK6; cited from earlier work
[6] = test system: human tumor cell lines; assay: Growth arrest of a panel of human tumor cell lines; type: cell-based; settings: read-out: GI50 values, growth arrest of most tumor cell lines
[7] = test system: tumor cells; assay: Induction of apoptosis of tumor cells; type: cell-based
[8] = test system: CDKs 1, 2, 5, 8 and 9; assay: In vitro kinase assay, other CDKs; type: biochemical; settings: data not shown
[9] = test system: AKT phosphorylation in MDA-MB-231 cells; assay: AKT phosphorylation; type: cell-based, human; settings: MDA-MB-231, increasing concentrations, 24 h
[10] = test system: CD-1 female mice; settings: CD-1, mouse, in vivo
[11] = test system: MDA-MB-231 tumor xenograft; assay: Orthotopic nude mouse assay; type: in vivo

N#Cc1cc2cnc(Nc3ccc(N4CCOCC4)cn3)nc2n(C2CCCC2)c1=O [7u, 8-Cyclopentyl-2-(5-morpholin-4-yl-pyridin-2-ylamino)-7-oxo-7,8-dihydro-pyrido[2,3-d] pyrimidine-6-carbonitrile]
water solubility of salts [1]: enhanced water solubility

N#Cc1cc2cnc(N3CCN(c4ccc(C(F)(F)F)cn4)CC3)nc2n(C2CCCC2)c1=O [7w, 8-Cyclopentyl-7-oxo-2-[4-(5-trifluoromethyl-pyridin-2-yl)-piperazin-1-yl]-7,8-dihydro-pyrido[2,3-d]pyrimidine-6-carbonitrile]
water solubility of salts [1]: enhanced water solubility

CC(=O)c1c(C)c2cnc(Nc3ccc(N4CCNCC4)cn3)nc2n(C2CCCC2)c1=O [PD-0332991, Palbociclib, reference compound]
sub-G1 population (apoptosis) [2]: absent | PARP cleavage (~89 kDa cleaved polypeptide) [3]: not observed | IC50 [4]: […] | IC50 [5]: 15 nM

CN1CCN(c2ccc(Nc3ncc4cc(C#N)c(=O)n(C5CCCC5)c4n3)nc2)CC1 [7v, 8-Cyclopentyl-2-[5-(4-methyl-piperazin-1-yl)-pyridin-2-ylamino]-7-oxo-7,8-dihydro-pyrido[2,3-d]pyrimidine-6-carbonitrile]
water solubility of salts [1]: enhanced water solubility

CN1CCN(c2ccc(Nc3ncc4cc(C#N)c(=O)n(C5CCCC5)c4n3)cc2)CC1 [7x, 8-Cyclopentyl-2-[4-(4-methyl-piperazin-1-yl)-phenylamino]-7-oxo-7,8-dihydro-pyrido[2,3-d]pyrimidine-6-carbonitrile]
GI50 [6]: 25 to 2000 nM | concentration inducing apoptosis of tumor cells [7]: 30 to 100 nM | inhibitory activity against CDKs 1, 2, 5, 8 and 9 [8]: little inhibitory activity | sub-G1 population (apoptosis) [2]: appearance of a sub-G1 population | PARP cleavage (~89 kDa cleaved polypeptide) [3]: dose-dependent accumulation of the ~89 kDa cleaved PARP polypeptide | phosphorylation of AKT (Ser473) [9]: inhibits the phosphorylation of AKT | mice surviving more than 10 days after injection [10]: 100% | tumor growth ([11]; 50 mg/kg Q2D IP, 21 day period): dose-dependent inhibition of tumor growth | signs of toxicity in treated groups ([11]; 50 mg/kg Q2D IP, body weights): No overt signs of toxicity | tumor weight at the end-point of the study ([11]; data not shown): decrease in tumor weight

N#Cc1cc2cnc(Nc3ccc(N4CCOCC4)cc3)nc2n(C2CCCC2)c1=O [7t, 8-Cyclopentyl-2-(4-morpholin-4-yl-phenylamino)-7-oxo-7,8-dihydro-pyrido[2,3-d]pyrimidine-6-carbonitrile]
water solubility of salts [1]: enhanced water solubility
